# Measurements as given in patent US9695133B2, “Quinazolinone-based oncogenic-RAS-selective lethal compounds and their use” (THE TRUSTEES OF COLUMBIA UNIVERSITY IN THE CITY OF NEW YORK, priority 2012, dated 2017).
# Tested on: HT-1080 cells
# Assay: Metabolite profiling (LC-MS/MS) upon erastin treatment
# Format: cell-based, human
# Details: 5 μg/mL erastin 5 h
# Method: 2 million HT-1080 cells were seeded in 10 cm culture dishes. […] 4 mL of cold 80% methanol was added to the cell monolayer to extract polar metabolites using a cell scraper. The cell lysate/methanol mixture was transferred to a 15 mL tube and centrifuged at 2,000×g at 4° C. for 10 minutes to pellet debris and proteins. The supernatant was transferred to a new tube and stored at −80° C. for liquid chromatography-mass spectrometry/mass spectrometry (LC-MS/MS) analysis. For lipid extract preparation, 3 mL of cold 100% isopropanol was added to the cell monolayer to scrape out cells. The resulting cell lysate/isopropanol mixture was transferred to a new 15 mL tube and centrifuged at 2,000×g at 4° C. for 10 minutes. The cleared supernatant was transferred to a new tube and stored at −20° C. for LC-MS/MS analysis.
# The metabolite extract was subjected to LC-MS/MS analysis to determine the quantity of each metabolite in each sample.
structure (smiles),measurement,value
CCOc1ccccc1-n1c(C(C)N2CCN(C(=O)COc3ccc(Cl)cc3)CC2)nc2ccccc2c1=O (stereo not drawn) [erastin],2-aminodipate Erastin/DMSO,0.6644
same,2-aminodipate log2 (Erastin/DMSO),−0.59
same,2′-deoxyadenosine Erastin/DMSO,0.6549
same,2′-deoxyadenosine log2 (Erastin/DMSO),−0.6107
same,2′-deoxycytidine Erastin/DMSO,1.737
same,2′-deoxycytidine log2 (Erastin/DMSO),0.7968
same,4-hydroxybenzoate Erastin/DMSO,0.9815
same,4-hydroxybenzoate log2 (Erastin/DMSO),−0.02693
same,4-pyridoxate Erastin/DMSO,1
same,4-pyridoxate log2 (Erastin/DMSO),0.0001853
same,5-HIAA (first entry) Erastin/DMSO,0.7283
same,5-HIAA (first entry) log2 (Erastin/DMSO),−0.4574
same,5-HIAA (second entry) Erastin/DMSO,1.231
same,5-HIAA (second entry) log2 (Erastin/DMSO),0.2997
same,5-hydroxytryptophan Erastin/DMSO,0.8725
same,5-hydroxytryptophan log2 (Erastin/DMSO),−0.1967
same,ADMA Erastin/DMSO,0.8585
same,ADMA log2 (Erastin/DMSO),−0.2201
same,ADMA/SDMA Erastin/DMSO,0.8985
same,ADMA/SDMA log2 (Erastin/DMSO),−0.1543
same,ADP Erastin/DMSO,0.9616
same,ADP log2 (Erastin/DMSO),−0.05643
same,AMP Erastin/DMSO,1.071
same,AMP log2 (Erastin/DMSO),0.09933
same,Anthranilic acid Erastin/DMSO,1.242
same,Anthranilic acid log2 (Erastin/DMSO),0.3128
same,C14:0 CE Erastin/DMSO,0.7897
same,C14:0 CE log2 (Erastin/DMSO),−0.3407
same,C14:0 LPC Erastin/DMSO,3.625
same,C14:0 LPC log2 (Erastin/DMSO),1.858
same,C14:0 SM Erastin/DMSO,1.062
same,C14:0 SM log2 (Erastin/DMSO),0.08617
same,C16:0 CE Erastin/DMSO,0.9643
same,C16:0 CE log2 (Erastin/DMSO),−0.05248
same,C16:0 LPC Erastin/DMSO,3.818
same,C16:0 LPC log2 (Erastin/DMSO),1.933
same,C16:0 SM Erastin/DMSO,1.03
same,C16:0 SM log2 (Erastin/DMSO),0.04281
same,C16:1 CE Erastin/DMSO,0.9321
same,C16:1 CE log2 (Erastin/DMSO),−0.1015
same,C16:1 LPC Erastin/DMSO,5.386
same,C16:1 LPC log2 (Erastin/DMSO),2.429
same,C16:1 SM Erastin/DMSO,0.9808
same,C16:1 SM log2 (Erastin/DMSO),−0.02798
same,C18:0 CE Erastin/DMSO,1.01
same,C18:0 CE log2 (Erastin/DMSO),0.01367
same,C18:0 LPC Erastin/DMSO,3.335
same,C18:0 LPC log2 (Erastin/DMSO),1.738
same,C18:0 SM Erastin/DMSO,1.018
same,C18:0 SM log2 (Erastin/DMSO),0.02559
same,C18:1 CE Erastin/DMSO,0.9198
same,C18:1 CE log2 (Erastin/DMSO),−0.1206
same,C18:1 LPC Erastin/DMSO,3.744
same,C18:1 LPC log2 (Erastin/DMSO),1.904
same,C18:1 SM Erastin/DMSO,0.925
same,C18:1 SM log2 (Erastin/DMSO),−0.1125
same,C18:2 CE Erastin/DMSO,0.9483
same,C18:2 CE log2 (Erastin/DMSO),−0.07651
same,C18:3 CE Erastin/DMSO,0.9277
same,C18:3 CE log2 (Erastin/DMSO),−0.1083
same,C20:3 CE Erastin/DMSO,0.7864
same,C20:3 CE log2 (Erastin/DMSO),−0.3467
same,C20:4 CE Erastin/DMSO,0.9141
same,C20:4 CE log2 (Erastin/DMSO),−0.1297
same,C20:4 LPC Erastin/DMSO,8.518
same,C20:4 LPC log2 (Erastin/DMSO),3.091
same,C20:5 CE Erastin/DMSO,0.8407
same,C20:5 CE log2 (Erastin/DMSO),−0.2504
same,C22:0 SM Erastin/DMSO,0.96
same,C22:0 SM log2 (Erastin/DMSO),−0.0589
same,C22:1 SM Erastin/DMSO,0.8374
same,C22:1 SM log2 (Erastin/DMSO),−0.256
same,C22:6 CE Erastin/DMSO,0.7847
same,C22:6 CE log2 (Erastin/DMSO),−0.3498
same,C22:6 LPC Erastin/DMSO,8.456
same,C22:6 LPC log2 (Erastin/DMSO),3.08
same,C24:0 SM Erastin/DMSO,0.9621
same,C24:0 SM log2 (Erastin/DMSO),−0.05567
same,C24:1 SM Erastin/DMSO,0.8933
same,C24:1 SM log2 (Erastin/DMSO),−0.1627
same,C30:0 PC Erastin/DMSO,0.8954
same,C30:0 PC log2 (Erastin/DMSO),−0.1594
same,C30:1 PC Erastin/DMSO,1.014
same,C30:1 PC log2 (Erastin/DMSO),0.01988
same,C30:2 PC Erastin/DMSO,0.9467
same,C30:2 PC log2 (Erastin/DMSO),−0.07901
same,C32:0 PC Erastin/DMSO,0.7948
same,C32:0 PC log2 (Erastin/DMSO),−0.3314
same,C32:0 PE Erastin/DMSO,0.9821
same,C32:0 PE log2 (Erastin/DMSO),−0.0261
same,C32:1 DAG Erastin/DMSO,1.055
same,C32:1 DAG log2 (Erastin/DMSO),0.07658
same,C32:1 PC Erastin/DMSO,0.9998
same,C32:1 PC log2 (Erastin/DMSO),−0.0003379
same,C32:1 PE Erastin/DMSO,1.024
same,C32:1 PE log2 (Erastin/DMSO),0.03411
same,C32:1 PI Erastin/DMSO,1.261
same,C32:1 PI log2 (Erastin/DMSO),0.3346
same,C32:2 PC Erastin/DMSO,1.218
same,C32:2 PC log2 (Erastin/DMSO),0.2847
same,C32:2 PE Erastin/DMSO,1.018
same,C32:2 PE log2 (Erastin/DMSO),0.02554
same,C34:0 PC Erastin/DMSO,0.7975
same,C34:0 PC log2 (Erastin/DMSO),−0.3264
same,C34:0 PE Erastin/DMSO,0.9533
same,C34:0 PE log2 (Erastin/DMSO),−0.06907
same,C34:1 DAG Erastin/DMSO,0.8823
same,C34:1 DAG log2 (Erastin/DMSO),−0.1807
same,C34:1 PC Erastin/DMSO,0.8993
same,C34:1 PC log2 (Erastin/DMSO),−0.1531
same,C34:1 PE Erastin/DMSO,1.04
same,C34:1 PE log2 (Erastin/DMSO),0.05679
same,C34:1 PI Erastin/DMSO,1.173
same,C34:1 PI log2 (Erastin/DMSO),0.2306
same,C34:2 DAG Erastin/DMSO,1.089
same,C34:2 DAG log2 (Erastin/DMSO),0.1227
same,C34:2 PC Erastin/DMSO,1.049
same,C34:2 PC log2 (Erastin/DMSO),0.06833
same,C34:2 PE Erastin/DMSO,0.982
same,C34:2 PE log2 (Erastin/DMSO),−0.02619
same,C34:2 PI Erastin/DMSO,1.286
same,C34:2 PI log2 (Erastin/DMSO),0.3633
same,C34:3 PC Erastin/DMSO,1.134
same,C34:3 PC log2 (Erastin/DMSO),0.1814
same,C34:4 PC Erastin/DMSO,1.086
same,C34:4 PC log2 (Erastin/DMSO),0.119
same,C36:0 PC Erastin/DMSO,0.6501
same,C36:0 PC log2 (Erastin/DMSO),−0.6212
same,C36:0 PE Erastin/DMSO,0.9538
same,C36:0 PE log2 (Erastin/DMSO),−0.06821
same,C36:0 PI Erastin/DMSO,1.006
same,C36:0 PI log2 (Erastin/DMSO),0.009131
